Source: patent publication US20250049698A1, “BIOACTIVE SERUM FRACTIONS FROM FRESH ROSE FLOWERS AND METHODS FOR THEIR PREPARATION AND USES” (ISP INVESTMENTS LLC, priority 2021, published 2025)

Experiment: DPPH free radical scavenging assay
Assay type: biochemical
Conditions: positive control; dilution from 5% (w/v) stock solution
Text: DPPH assay provides an easy and rapid way to evaluate potential antioxidants. A free radical is an atom or molecule that has one or more unpaired electrons. The evidence is that reactive species of oxygen (O2-, H2O2, and NO2+) play an important role in inflammation, neurodegenerative disorders, and cancer, etc. Antioxidants can react with the nitrogen centered radical DPPH (2,2-Diphenyl-1-Picrylhydrazyl) and convert it to the non-radical 2,2-Diphenyl-1-Picrylhydrazine. The changes in color (from deep violet to light yellow) were read at 517 nm after 60 min of reaction using a UV/VIS Spectrophotometer. DPPH free radical scavenging method offers the first approach for evaluating the antioxidant potential of a compound or extract. DPPH free radical scavenging activity was determined to assess antioxidant activities for test articles by following protocol. DPPH (Sigma-Aldrich, 300267, St. Louis, MO, USA) solution of 0.06 mM in absolute methanol was prepared. Test articles with different concentrations (20 μl) were mixed with 180 μl of DPPH solution to obtain a total of 200 μl per well in a 96-well plate. After 60 min incubation at room temperature in the dark, the absorbance was measured at 517 nm by using a microplate spectrophotometer Biotek Synergy 2 (Biotek Instruments Inc, Winooski, VT, USA). […] The ability to scavenge DPPH radicle was calculated as % inhibition. […]

DPPH free radical scavenging IC50: 0.01 % (v/v)
SMILES: O=C1O[C@H]([C@@H](O)CO)C(O)=C1O [L-(+)-ascorbic acid (Vitamin C), L-(+)-ascorbic acid]
